Reference: the RepoRT retention time repository

Assay: RP, Waters CORTECS UPLC C18, 100 × 2.1 mm, 1.6 µm, 40 °C, 0.4 mL/min, estimated dead time 0.55 min; A: water + 0.1% formic acid, pH 3; B: acetonitrile + 0.1% formic acid, pH 3; gradient (min/%B) 0/5 1.12/5 6.41/99.5 10.01/99.5
Conditions: stereoisomer not certain

Row | SMILES | LC retention time
1 | CC(C)(C)c1ccc(CSc2cnn(C(C)(C)C)c(=O)c2Cl)cc1 [Pyridaben] | 6.5 min
2 | CNC(=O)Oc1ccc(N(C)C)c(C)c1 [Aminocarb] | 1.6 min
3 | Cc1cccc(C)c1N(Cn1cccn1)C(=O)CCl [Metazachlor] | 4.52 min
4 | CN1COCN(Cc2cnc(Cl)s2)C1=N[N+](=O)[O-] [Thiametoxam] | 2.87 min
5 | c1ccc2[nH]c(-c3cscn3)nc2c1 [Thiabendazole] | 2.53 min
6 | O=C(NC(=O)c1ccccc1Cl)Nc1ccc(OC(F)(F)F)cc1 [Triflumuron] | 5.42 min
7 | CC(CCC(=O)NCC(=O)O)C1CCC2C3CCC4CC(O)CCC4(C)C3CC(O)C12C (stereo not drawn) [Glycodeoxycholic acid] | 4.66 min
8 | CCOP(=S)(OCC)ON=C(C#N)c1ccccc1 [Phoxim] | 5.44 min
9 | N#CN=C1SCCN1Cc1ccc(Cl)nc1 [Thiacloprid] | 3.6 min
10 | CNC(=O)c1cc(Cl)cc(C)c1NC(=O)c1cc(Br)nn1-c1ncccc1Cl [Chlorantraniliprole] | 4.63 min
11 | COC=C(C(=O)OC)c1ccccc1Oc1cc(Oc2ccccc2C#N)ncn1 [Azoxystrobin] | 4.91 min
12 | Cc1nc(N(C)C)nc(OC(=O)N(C)C)c1C [Pirimicarb] | 3.06 min
13 | CCSC(=O)N1CCCCCC1 [Molinate] | 5.03 min
14 | CC(C)C1CCC(Cc2ccc(Cl)cc2)C1(O)Cn1cncn1 (stereo not drawn) [Ipconazole] | 5.48 min
15 | CC#Cc1cc(C)nc(Nc2ccccc2)n1 [Mepanipyrim] | 5.11 min
16 | COc1cccc(C(=O)NN(C(=O)c2cc(C)cc(C)c2)C(C)(C)C)c1C [Methoxyfenozide] | 5.09 min
17 | CCCCC[n+]1cccc(S(=O)(=O)[O-])c1 [C5-APS] | 2.31 min
18 | CNC(=O)Oc1cccc2ccccc12 [Carbaryl] | 3.14 min
19 | CC(C)Oc1cc(-n2nc(C(C)(C)C)oc2=O)c(Cl)cc1Cl [Oxadiazon] | 6.14 min

Next, values leading:

Row | LC retention time | SMILES
20 | 7.48 min | CC(C)CCCC(C)C1CCC2C3=CC=C4CC(O)CCC4(C)C3CCC21C (stereo not drawn) [7-dehydrocholesterol]
21 | 3.87 min | COCCCNc1nc(NC(C)C)nc(SC)n1 [Methoprotryne]
22 | 0.798 min | OC1COC(O)C(O)C1O (stereo not drawn) [ARABINOSE]
23 | 2.35 min | O=C(O)c1cc(=O)c2ccccc2[nH]1 [KYNURENATE]
24 | 2.47 min | CC(CCC(=O)O)C(=O)O (stereo not drawn) [2-METHYLGLUTARATE]
25 | 3.31 min | CCCCCCSCC(NC(=O)CCC(N)C(=O)O)C(=O)NCC(=O)O (stereo not drawn) [S-HEXYL-GLUTATHIONE]
26 | 4.58 min | CC(CCC(=O)O)C1CCC2C3CC(O)C4CC(O)CCC4(C)C3CCC12C (stereo not drawn) [Hyodeoxycholic acid]
27 | 4.84 min | CN(C)C(=O)Nc1ccc(Oc2ccc(Cl)cc2)cc1 [Chloroxuron]
28 | 2.64 min | Cc1cc2nc[nH]c2cc1C [5,6 DIMETHYLBENZIMIDAZOLE]
29 | 0.76 min | Nc1nc2c(ncn2C2OC(CO)C(O)C2O)c(=O)[nH]1 (stereo not drawn) [GUANOSINE]
30 | 4.09 min | COc1nc(C)nc(NC(=O)NS(=O)(=O)c2ccccc2OCCCl)n1 [Triasulfuron]
31 | 2.13 min | O=Cc1ccc(O)cc1 [4-HYDROXYBENZALDEHYDE]
32 | 3.99 min | CCCCCCCCC[n+]1cccc(S(=O)(=O)[O-])c1 [C9-APS]
33 | 3.56 min | CCCCCC=CC(=O)OC(CC(=O)[O-])C[N+](C)(C)C [trans-2-Octenoyl-L-carnitine]
34 | 5.25 min | CNC(=O)C(=NOC)c1ccccc1COc1cc(C)ccc1C [Dimoxystrobin]
35 | 0.722 min | Nc1cc(C(=O)O)ccc1O [3-AMINO-4-HYDROXYBENZOATE]
36 | 1.1 min | Cc1cn(C2CC(O)C(CO)O2)c(=O)[nH]c1=O (stereo not drawn) [THYMIDINE]
37 | 5.1 min | CCCCCCCCCCCCCC(O)CC(=O)OC(CC(=O)[O-])C[N+](C)(C)C [[(3R)-3-Hydroxyhexadecanoyl]-L-carnitine]
38 | 3.26 min | O=C(O)CNC(=O)C=Cc1ccccc1 [N-(CINNAMOYL)GLYCINE]
39 | 3.88 min | C=CCOC(Cn1ccnc1)c1ccc(Cl)cc1Cl (stereo not drawn) [Imazalil]
40 | 4.08 min | CC(CCC(=O)NCC(=O)O)C1CCC2C3C(O)CC4CC(O)CCC4(C)C3CC(O)C12C (stereo not drawn) [Glycocholic acid hydrate]
41 | 2.9 min | CC1NC(=O)NC1CCCCCC(=O)O (stereo not drawn) [DETHIOBIOTIN]
42 | 3.13 min | O=C(O)C(O)Cc1c[nH]c2ccccc12 (racemic) [DL-Indole-3-lactic acid]
43 | 4.14 min | COC(=O)Cc1c[nH]c2ccccc12 [INDOLE-3-METHYL ACETATE]
